Laboratory results as given in ChEMBL document CHEMBL3425500, “Perspective: Tyrosine phosphatases as novel targets for antiplatelet therapy” (Bioorg Med Chem, 2015).
Blank lines part the entries; values can stand above or below the compound they belong to.

Key:
[1] = target: Dual specificity protein phosphatase 3 (Homo sapiens, UniProt P51452); test: Inhibition of recombinant VHR (unknown origin) using OMFP as substrate after 1 hr by fluorescence assay
[2] = target: T1, Tyrosine-protein phosphatase non-receptor type 1 (Homo sapiens, UniProt P18031); test: Competitive inhibition of PTP1B (unknown origin)
T1 sequence (P18031 whole entry): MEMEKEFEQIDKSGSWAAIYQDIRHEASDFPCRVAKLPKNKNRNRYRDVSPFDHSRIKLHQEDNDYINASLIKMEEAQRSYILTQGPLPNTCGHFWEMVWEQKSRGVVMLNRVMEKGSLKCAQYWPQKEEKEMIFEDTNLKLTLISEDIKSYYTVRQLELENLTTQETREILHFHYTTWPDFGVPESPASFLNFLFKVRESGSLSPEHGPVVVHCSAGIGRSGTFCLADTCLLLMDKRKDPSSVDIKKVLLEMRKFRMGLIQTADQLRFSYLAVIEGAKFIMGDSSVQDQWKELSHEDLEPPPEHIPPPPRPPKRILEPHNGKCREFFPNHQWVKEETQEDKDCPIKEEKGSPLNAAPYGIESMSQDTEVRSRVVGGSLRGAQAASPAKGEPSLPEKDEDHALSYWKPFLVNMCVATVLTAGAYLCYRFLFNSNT

[3] = target: T1, Tyrosine-protein phosphatase non-receptor type 1; test: Inhibition of recombinant human PTP1B assessed as hydrolysis of DiFMUP preincubated for 10 mins followed by DiFMUP addition measured after 5 mins by fluorescence assay
[4] = target: T2, Dual specificity protein phosphatase 22 (Homo sapiens, UniProt Q9NRW4); test: Inhibition of recombinant VHX (unknown origin) using OMFP as substrate after 1 hr by fluorescence assay
T2 sequence (Q9NRW4 whole entry): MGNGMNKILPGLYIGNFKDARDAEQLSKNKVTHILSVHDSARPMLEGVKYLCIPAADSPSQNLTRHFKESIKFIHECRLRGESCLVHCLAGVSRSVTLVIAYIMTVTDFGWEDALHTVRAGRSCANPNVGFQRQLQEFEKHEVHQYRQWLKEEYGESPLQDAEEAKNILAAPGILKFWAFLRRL

[5] = target: T3, Receptor-type tyrosine-protein phosphatase C (Homo sapiens, UniProt P08575); test: Inhibition of recombinant CD45 (unknown origin) using OMFP as substrate after 1 hr by fluorescence assay
T3 sequence (P08575 whole entry): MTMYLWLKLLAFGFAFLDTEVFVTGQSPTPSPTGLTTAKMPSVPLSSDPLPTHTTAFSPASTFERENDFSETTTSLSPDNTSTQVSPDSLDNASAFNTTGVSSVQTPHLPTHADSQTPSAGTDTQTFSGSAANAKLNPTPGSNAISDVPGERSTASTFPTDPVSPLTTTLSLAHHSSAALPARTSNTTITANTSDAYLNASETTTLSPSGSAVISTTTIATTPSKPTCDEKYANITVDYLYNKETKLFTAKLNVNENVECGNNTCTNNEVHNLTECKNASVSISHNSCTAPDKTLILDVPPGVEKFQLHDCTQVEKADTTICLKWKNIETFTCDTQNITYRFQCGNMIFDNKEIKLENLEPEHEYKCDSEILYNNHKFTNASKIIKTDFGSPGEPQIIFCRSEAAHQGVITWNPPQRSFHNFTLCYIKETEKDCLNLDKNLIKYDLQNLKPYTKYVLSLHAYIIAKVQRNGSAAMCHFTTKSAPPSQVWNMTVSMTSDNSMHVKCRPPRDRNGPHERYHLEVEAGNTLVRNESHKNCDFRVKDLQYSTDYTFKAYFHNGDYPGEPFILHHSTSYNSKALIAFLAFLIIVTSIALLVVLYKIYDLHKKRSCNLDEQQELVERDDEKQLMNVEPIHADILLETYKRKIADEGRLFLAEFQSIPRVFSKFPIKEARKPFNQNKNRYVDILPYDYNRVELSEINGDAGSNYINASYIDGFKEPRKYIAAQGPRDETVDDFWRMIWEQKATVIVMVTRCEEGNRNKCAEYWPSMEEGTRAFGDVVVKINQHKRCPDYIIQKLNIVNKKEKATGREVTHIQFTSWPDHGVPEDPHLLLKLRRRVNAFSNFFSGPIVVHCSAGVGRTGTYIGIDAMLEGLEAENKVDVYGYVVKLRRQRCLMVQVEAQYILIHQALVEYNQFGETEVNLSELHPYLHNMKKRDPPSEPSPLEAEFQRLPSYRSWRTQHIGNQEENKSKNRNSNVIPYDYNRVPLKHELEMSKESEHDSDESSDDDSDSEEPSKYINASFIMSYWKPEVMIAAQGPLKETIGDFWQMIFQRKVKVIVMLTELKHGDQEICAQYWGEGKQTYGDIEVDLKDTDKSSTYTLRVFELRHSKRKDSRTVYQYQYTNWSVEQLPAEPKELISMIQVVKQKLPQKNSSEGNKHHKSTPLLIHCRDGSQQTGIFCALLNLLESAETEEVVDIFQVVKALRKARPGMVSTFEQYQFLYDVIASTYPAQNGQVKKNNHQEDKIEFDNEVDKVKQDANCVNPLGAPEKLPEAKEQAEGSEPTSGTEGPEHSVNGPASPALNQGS

[6] = target: Receptor-type tyrosine-protein phosphatase F (Homo sapiens, UniProt P10586); test: Inhibition of recombinant LAR (unknown origin) using OMFP as substrate after 1 hr by fluorescence assay
[7] = target: T4, Tyrosine-protein phosphatase non-receptor type 22 (Homo sapiens, UniProt Q9Y2R2); test: Inhibition of recombinant LYP (unknown origin) using OMFP as substrate after 1 hr by fluorescence assay
T4 sequence (Q9Y2R2 whole entry): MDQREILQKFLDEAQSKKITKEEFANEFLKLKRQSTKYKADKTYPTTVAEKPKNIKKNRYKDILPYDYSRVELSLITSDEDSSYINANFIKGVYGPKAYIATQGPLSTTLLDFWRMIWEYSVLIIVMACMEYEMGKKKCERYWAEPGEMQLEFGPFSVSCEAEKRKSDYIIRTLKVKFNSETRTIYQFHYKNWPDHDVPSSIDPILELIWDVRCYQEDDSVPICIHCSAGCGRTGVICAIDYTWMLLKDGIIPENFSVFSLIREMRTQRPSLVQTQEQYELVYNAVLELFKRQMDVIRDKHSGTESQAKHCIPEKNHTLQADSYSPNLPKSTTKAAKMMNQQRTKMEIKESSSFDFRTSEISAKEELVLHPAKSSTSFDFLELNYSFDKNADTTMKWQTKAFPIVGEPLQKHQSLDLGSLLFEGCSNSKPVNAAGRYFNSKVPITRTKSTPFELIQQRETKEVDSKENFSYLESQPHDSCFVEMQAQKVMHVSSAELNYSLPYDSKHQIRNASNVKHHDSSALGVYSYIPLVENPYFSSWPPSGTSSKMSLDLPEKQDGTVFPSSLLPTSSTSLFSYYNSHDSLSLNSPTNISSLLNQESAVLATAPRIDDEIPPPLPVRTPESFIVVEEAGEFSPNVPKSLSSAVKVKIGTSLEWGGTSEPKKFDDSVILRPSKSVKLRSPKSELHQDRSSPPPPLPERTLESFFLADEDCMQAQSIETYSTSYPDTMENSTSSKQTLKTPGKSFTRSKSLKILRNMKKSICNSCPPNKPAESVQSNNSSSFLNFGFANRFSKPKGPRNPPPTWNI

[8] = target: T5, Dual specificity protein phosphatase 6 (Homo sapiens, UniProt Q16828); test: Inhibition of recombinant MKP3 (unknown origin) using OMFP as substrate after 1 hr by fluorescence assay
T5 sequence (Q16828 whole entry): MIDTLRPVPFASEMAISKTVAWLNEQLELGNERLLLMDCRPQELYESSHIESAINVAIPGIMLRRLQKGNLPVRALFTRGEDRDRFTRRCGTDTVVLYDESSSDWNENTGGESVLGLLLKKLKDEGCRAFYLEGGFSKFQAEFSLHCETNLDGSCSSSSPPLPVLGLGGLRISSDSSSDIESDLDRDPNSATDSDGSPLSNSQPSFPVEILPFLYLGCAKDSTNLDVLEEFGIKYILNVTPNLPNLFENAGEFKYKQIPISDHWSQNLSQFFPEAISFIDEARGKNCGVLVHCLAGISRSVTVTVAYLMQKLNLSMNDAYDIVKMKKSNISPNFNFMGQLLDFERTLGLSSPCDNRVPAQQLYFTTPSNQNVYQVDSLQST

[9] = target: T6, Receptor-type tyrosine-protein phosphatase R (Homo sapiens, UniProt Q15256); test: Inhibition of recombinant PTP-SL (unknown origin) using OMFP as substrate after 1 hr by fluorescence assay
T6 sequence (Q15256 whole entry): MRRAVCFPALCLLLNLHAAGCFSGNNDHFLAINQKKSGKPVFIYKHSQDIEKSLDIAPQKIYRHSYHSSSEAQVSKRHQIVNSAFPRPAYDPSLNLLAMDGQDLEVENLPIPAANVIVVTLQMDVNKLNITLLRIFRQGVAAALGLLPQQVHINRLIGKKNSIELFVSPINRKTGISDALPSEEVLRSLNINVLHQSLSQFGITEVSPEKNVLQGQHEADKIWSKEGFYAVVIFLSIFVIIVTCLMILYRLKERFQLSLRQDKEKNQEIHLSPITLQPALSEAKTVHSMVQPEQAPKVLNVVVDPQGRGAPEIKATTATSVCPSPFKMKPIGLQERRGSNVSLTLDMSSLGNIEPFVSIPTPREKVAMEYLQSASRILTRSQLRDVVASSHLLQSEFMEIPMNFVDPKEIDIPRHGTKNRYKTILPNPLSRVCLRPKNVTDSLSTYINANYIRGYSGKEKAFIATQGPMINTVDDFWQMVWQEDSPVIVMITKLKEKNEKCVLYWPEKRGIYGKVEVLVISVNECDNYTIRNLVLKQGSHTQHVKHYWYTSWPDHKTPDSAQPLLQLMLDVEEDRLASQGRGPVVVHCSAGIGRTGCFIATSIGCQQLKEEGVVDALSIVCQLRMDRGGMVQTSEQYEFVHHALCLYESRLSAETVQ

[10] = target: T1, Tyrosine-protein phosphatase non-receptor type 1; test: Inhibition of recombinant PTP1B (unknown origin) using OMFP as substrate after 1 hr by fluorescence assay
[11] = target: T7, Tyrosine-protein phosphatase non-receptor type 2 (Homo sapiens, UniProt P17706); test: Inhibition of recombinant TCPTP (unknown origin) using OMFP as substrate after 1 hr by fluorescence assay
T7 sequence (P17706 whole entry): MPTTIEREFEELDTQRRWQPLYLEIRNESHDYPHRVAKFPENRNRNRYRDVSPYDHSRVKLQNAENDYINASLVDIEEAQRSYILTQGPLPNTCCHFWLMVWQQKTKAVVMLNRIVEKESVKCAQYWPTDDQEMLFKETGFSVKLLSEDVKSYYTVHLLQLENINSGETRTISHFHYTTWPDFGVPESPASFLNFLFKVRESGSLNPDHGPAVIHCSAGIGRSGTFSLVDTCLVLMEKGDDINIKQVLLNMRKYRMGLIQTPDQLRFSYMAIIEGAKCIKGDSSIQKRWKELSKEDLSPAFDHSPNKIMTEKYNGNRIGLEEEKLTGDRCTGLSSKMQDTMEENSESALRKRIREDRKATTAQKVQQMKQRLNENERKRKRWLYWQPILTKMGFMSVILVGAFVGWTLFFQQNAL

[12] = target: T8, Tyrosine-protein phosphatase non-receptor type 5 (Homo sapiens, UniProt P54829); test: Inhibition of recombinant STEP (unknown origin) using OMFP as substrate after 1 hr by fluorescence assay
T8 sequence (P54829 whole entry): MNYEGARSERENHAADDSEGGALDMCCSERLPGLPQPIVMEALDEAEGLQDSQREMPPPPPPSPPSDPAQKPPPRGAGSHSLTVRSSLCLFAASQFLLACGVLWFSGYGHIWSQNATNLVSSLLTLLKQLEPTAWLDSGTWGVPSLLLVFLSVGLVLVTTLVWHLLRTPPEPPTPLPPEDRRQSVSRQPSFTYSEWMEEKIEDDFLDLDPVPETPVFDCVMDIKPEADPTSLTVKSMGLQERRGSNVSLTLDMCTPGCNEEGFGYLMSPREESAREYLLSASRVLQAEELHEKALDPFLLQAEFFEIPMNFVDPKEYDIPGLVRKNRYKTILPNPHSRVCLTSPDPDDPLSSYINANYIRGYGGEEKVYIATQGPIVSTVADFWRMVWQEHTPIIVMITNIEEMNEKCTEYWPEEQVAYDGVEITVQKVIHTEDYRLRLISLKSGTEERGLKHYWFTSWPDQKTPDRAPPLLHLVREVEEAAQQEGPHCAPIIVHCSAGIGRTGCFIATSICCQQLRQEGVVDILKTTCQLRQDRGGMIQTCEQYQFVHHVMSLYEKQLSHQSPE

[13] = target: T9, Tyrosine-protein phosphatase non-receptor type 7 (Homo sapiens, UniProt P35236); test: Inhibition of recombinant HePTP (unknown origin) using OMFP as substrate after 1 hr by fluorescence assay
T9 sequence (P35236 whole entry): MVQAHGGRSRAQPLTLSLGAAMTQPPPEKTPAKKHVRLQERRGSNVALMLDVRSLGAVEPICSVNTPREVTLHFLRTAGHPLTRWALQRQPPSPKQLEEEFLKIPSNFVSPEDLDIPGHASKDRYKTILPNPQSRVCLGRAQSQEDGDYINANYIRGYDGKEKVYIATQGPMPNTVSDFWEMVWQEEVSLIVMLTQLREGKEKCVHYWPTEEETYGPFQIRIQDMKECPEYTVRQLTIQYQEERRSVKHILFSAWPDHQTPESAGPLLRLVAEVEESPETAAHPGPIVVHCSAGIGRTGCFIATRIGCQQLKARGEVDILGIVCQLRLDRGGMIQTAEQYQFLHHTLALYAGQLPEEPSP

Sequence of Receptor-type tyrosine-protein phosphatase F (P10586 whole entry): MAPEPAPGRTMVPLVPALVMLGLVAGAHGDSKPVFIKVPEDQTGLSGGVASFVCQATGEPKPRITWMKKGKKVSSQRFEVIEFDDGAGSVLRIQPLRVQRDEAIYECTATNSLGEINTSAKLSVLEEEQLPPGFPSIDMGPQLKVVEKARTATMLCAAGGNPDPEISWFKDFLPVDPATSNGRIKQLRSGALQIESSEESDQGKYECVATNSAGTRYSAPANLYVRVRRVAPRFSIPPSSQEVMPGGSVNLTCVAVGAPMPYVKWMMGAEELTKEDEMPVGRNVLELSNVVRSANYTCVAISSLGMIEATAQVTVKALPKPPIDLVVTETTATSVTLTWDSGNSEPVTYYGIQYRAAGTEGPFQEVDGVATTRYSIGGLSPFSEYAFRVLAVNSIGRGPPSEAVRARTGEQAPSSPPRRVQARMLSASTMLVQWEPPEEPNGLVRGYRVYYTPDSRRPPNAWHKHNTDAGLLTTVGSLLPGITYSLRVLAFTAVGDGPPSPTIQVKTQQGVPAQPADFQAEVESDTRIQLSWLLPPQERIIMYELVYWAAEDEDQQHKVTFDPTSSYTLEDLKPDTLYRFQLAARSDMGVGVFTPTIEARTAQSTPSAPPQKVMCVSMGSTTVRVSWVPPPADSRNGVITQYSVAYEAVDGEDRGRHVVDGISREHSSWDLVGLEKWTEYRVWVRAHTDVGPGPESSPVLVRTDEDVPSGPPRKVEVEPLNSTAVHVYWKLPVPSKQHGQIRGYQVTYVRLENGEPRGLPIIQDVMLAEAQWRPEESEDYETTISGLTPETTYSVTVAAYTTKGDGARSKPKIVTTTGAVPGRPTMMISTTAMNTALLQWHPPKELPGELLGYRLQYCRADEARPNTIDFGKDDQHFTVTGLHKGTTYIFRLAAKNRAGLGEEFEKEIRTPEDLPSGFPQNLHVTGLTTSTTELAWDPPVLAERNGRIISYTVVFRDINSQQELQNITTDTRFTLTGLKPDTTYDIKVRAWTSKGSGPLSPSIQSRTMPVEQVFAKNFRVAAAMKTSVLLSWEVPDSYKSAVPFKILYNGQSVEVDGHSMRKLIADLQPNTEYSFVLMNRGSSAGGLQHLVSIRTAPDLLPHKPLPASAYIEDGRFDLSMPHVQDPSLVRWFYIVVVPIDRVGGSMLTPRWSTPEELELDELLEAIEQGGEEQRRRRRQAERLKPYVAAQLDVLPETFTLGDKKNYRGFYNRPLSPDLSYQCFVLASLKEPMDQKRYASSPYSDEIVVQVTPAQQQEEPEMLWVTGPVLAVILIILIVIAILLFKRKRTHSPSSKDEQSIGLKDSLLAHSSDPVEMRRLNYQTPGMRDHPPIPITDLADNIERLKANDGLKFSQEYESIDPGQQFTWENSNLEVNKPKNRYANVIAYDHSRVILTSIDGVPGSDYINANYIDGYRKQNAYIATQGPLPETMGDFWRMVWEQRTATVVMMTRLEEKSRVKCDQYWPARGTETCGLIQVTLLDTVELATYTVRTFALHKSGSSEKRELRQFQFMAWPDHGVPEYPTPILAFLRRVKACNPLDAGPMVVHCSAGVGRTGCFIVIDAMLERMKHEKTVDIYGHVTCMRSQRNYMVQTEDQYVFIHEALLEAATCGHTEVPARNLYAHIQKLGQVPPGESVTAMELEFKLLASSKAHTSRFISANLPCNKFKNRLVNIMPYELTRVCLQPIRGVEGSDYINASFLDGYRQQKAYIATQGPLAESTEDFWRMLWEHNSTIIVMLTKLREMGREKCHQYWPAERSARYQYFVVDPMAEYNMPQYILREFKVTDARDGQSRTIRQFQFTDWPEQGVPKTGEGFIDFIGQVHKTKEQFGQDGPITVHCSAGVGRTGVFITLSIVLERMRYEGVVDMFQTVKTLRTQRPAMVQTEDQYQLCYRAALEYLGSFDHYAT
Sequence of Dual specificity protein phosphatase 3 (P51452 whole entry): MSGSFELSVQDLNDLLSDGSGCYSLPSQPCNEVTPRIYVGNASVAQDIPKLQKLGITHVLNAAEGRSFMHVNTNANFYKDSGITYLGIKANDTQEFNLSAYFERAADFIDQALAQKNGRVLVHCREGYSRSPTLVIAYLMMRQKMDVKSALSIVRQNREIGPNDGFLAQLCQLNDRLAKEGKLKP

- IC50 [1]: 2.68 µM
SMILES: COc1ccc(-c2nnc(Nc3nc4c(OC)cccc4s3)o2)cc1

- Ki [2]: 0.026 µM
SMILES: CCCCCCCCCCCCCCC(=O)N[C@@H](Cc1ccc(C(F)(F)P(=O)(O)O)cc1)C(=O)N[C@@H](CC(=O)O)C(=O)N[C@@H](Cc1ccc(C(F)(F)P(=O)(O)O)cc1)C(N)=O

- IC50 [3]: 0.24 µM
SMILES: CN1C(=O)/C(=C\c2ccc(OCc3ccc(C4CCCCC4)cc3)cc2)S/C1=N/c1ccc(CC(=O)O)cc1

- IC50 [4]: 26 µM
- IC50 [5]: > 100 µM
- IC50 [6]: > 100 µM
- IC50 [7]: 49 µM
- IC50 [8]: > 100 µM
- IC50 [9]: 13 µM
- IC50 [10]: > 100 µM
- IC50 [11]: 55 µM
- IC50 [12]: > 100 µM
- IC50 [13]: 38 µM
SMILES: COc1ccc(-c2nnc(Nc3nc4c(F)cccc4s3)o2)cc1
